Measured values reported in article PMC9944328 (Nature Communications, 2023).
“And” between values parts separate entries of the source, which are not always exact repeats. Equal values may be shown once.

Legend:
[1] = molecular target: SSTR2 mutants (Homo sapiens, UniProt P30874, Y312A);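 note: Read-out is the BRET ratio between Nluc-fused β-arrestin 1 and the early endosome marker FYVE-mVenus, measured after ligand addition with coelenterazine h as substrate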
[2] = molecular target: SSTR2 (Homo sapiens, UniProt P30874); assay: NanoBiT β-arrestin 1 recruitment assay, HEK293 (SSTR2 wild-type); assay type: cell-based; parameters: Human full-length SSTR wild-type and mutant vectors were C-terminally fused; expressed in transfected cells; host or cells: HEK293; Best-fit values Bottom / Best-fit values Top / Best-fit values Span / Best-fit Bottom / Best-fit Top / Best-fit Span: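 percent of maximal wild-type response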; conditions: for Span (best-fit value) / Top (best-fit value): β-arrestin1 recruitment;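 for Bottom (best-fit): percent of maximal wild-type response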;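 for Bottom: percent of maximal wild-type response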;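 for Span (best-fit value): percent of maximal wild-type response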;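 for Span (best-fit): percent of maximal wild-type response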;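 for Span: percent of maximal wild-type response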;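 for Top (best-fit value): percent of maximal wild-type response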;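 for Top (best-fit): percent of maximal wild-type response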;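 for Top: percent of maximal wild-type response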
Chain of SSTR2 (P30874 whole entry, the tested form may be a part): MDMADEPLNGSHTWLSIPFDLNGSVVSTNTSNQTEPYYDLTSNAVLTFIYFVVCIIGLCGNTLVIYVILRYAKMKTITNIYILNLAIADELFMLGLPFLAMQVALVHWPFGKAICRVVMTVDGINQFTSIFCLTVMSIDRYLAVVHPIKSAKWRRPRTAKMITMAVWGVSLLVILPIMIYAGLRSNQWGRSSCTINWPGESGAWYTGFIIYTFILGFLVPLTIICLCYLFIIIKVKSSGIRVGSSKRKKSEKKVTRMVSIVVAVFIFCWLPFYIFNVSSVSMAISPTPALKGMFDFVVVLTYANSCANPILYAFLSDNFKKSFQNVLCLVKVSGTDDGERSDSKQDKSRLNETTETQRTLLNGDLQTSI
Chain of SSTR2 (P49407 whole entry partner, the tested form may be a part): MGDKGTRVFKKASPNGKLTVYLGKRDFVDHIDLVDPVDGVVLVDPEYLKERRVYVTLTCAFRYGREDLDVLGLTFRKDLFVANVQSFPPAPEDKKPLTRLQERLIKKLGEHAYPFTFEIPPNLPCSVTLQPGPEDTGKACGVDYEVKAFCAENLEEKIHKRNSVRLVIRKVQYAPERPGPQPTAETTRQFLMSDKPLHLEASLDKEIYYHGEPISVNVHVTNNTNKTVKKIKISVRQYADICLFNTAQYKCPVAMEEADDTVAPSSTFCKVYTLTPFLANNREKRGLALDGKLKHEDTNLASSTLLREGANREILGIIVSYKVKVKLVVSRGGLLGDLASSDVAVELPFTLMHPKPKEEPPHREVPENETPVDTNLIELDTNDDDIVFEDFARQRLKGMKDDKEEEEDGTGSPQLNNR
Procedure: The NanoBiT β-arrestin 1 recruitment assays were carried out according to the method described previously. […] Human full-length SSTR wild-type and mutant vectors were C-terminally fused with a 15-amino acid flexible linker and the small fragment (SmBiT). HEK293 cells were seeded into six-well microplates at a density of 1.0 × 10^6 cells/well and cultured for 24 h at 37 °C with 5% CO2. After that, cells were co-transfected with pcDNA3.1+ vectors encoding SSTR wild-type or mutants and human β-arrestin 1. After transfecting for 24 h, the transfected cells were suspended and seeded into white 96-well plates, and then cultured at 37 °C overnight. After that the medium in each well was exchanged for 90 μl of 0.01% bovine serum albumin containing 20 μl of 50 μM coelenterazine h (Carbosynth) diluted in the HBSS assay buffer and incubated for 40 min at room temperature. Then, ligands diluted in the assay buffer was added to each well and the luminescence intensity was measured using the Synergy H1 microplate reader and detected at room temperature in a time period. All data presented are means of at least three independent experiments.

[3] = D122A set WT-3 = Q126A/Y205A set WT-2 = F208A set WT-3
[4] = F127A set WT-1 = I130A set WT-2
[5] = F127A set WT-3 = I130A set WT-1
[6] = Q126A/I130A set WT-3 = F127A set WT-2
[7] = SSTR2 WT-1 (run 1 of WT in the mutant's section)
[8] = SSTR2 WT-2 (run 2 of WT in the mutant's section)
[9] = SSTR2 WT-3 (run 3 of WT in the mutant's section)
[10] = best-fit value, WT-1 (run 1, WT of each mutant's batch)
[11] = best-fit value, WT-2 (run 2, WT of each mutant's batch)
[12] = best-fit value, WT-3 (run 3, WT of each mutant's batch)

Chain of SSTR2 mutants (P30874 whole entry Y312A, the tested form may be a part): as the sequence (P30874 whole entry, the tested form may be a part) above, with Y312A counted along it

Structure (SMILES): C[C@@H](O)[C@@H]1NC(=O)[C@H](CCCCN)NC(=O)[C@@H](Cc2c[nH]c3ccccc23)NC(=O)[C@H](Cc2ccccc2)NC(=O)[C@@H](NC(=O)[C@H](N)Cc2ccccc2)CSSC[C@@H](C(=O)N[C@H](CO)[C@@H](C)O)NC1=O [octreotide]
- Emax [1]: 45.6 ± 1.21%
- Bottom (best-fit) ([2]; D122A set WT-1): 12.18
- Span (best-fit) ([2]; D122A set WT-1): 93.68
- Top (best-fit) ([2]; D122A set WT-1): 105.9
- Bottom (best-fit) ([2]; D122A set WT-2): 4.265
- Span (best-fit) ([2]; D122A set WT-2): 83.04
- Top (best-fit) ([2]; D122A set WT-2): 87.31
- Bottom (best-fit) [2, 3]: -0.5169
- Span (best-fit) [2, 3]: 99.09
- Top (best-fit) [2, 3]: 98.58
- Bottom (best-fit) [2, 4]: -0.5804
- Span (best-fit) [2, 4]: 101.3
- Top (best-fit) [2, 4]: 100.7
- Bottom (best-fit) [2, 5]: -0.2332
- Span (best-fit) [2, 5]: 101
- Top (best-fit) [2, 5]: 100.8
- Bottom (best-fit) ([2]; F208A set WT-1): -0.7342
- Span (best-fit) ([2]; F208A set WT-1): 99.34
- Top (best-fit) ([2]; F208A set WT-1): 98.6
- Bottom (best-fit) ([2]; F208A set WT-2): -1.061
- Span (best-fit) ([2]; F208A set WT-2): 99.77
- Top (best-fit) ([2]; F208A set WT-2): 98.71
- Emax ([2]; HEK293): 100%
- Bottom (best-fit) ([2]; Q126A set WT-1): -2.277
- Span (best-fit) ([2]; Q126A set WT-1): 105
- Top (best-fit) ([2]; Q126A set WT-1): 102.7
- Bottom (best-fit) [2, 6]: 0.158
- Span (best-fit) [2, 6]: 100.8
- Top (best-fit) [2, 6]: 100.9
- Span (best-fit value) [2, 7]: 93.68 and 99.09 and 83.04 and 90.27 and 99.77
- Top (best-fit value) [2, 7]: 105.9 and 98.58 and 87.31 and 89.81 and 98.2
- Span (best-fit value) [2, 8]: 83.04 and 105 and 80.44 and 93.46 and 96.97
- Top (best-fit value) [2, 8]: 87.31 and 102.7 and 85.95 and 93.4 and 96.99
- Span (best-fit value) [2, 9]: 99.09 and 101.1 and 95.18 and 96.4
- Top (best-fit value) [2, 9]: 98.58 and 97.65 and 95.41 and 96.36
- Best-fit values Bottom ([2]; WT-1 (F265A set)): 0.158
- Best-fit values Span ([2]; WT-1 (F265A set)): 100.8
- Best-fit values Top ([2]; WT-1 (F265A set)): 100.9
- Best-fit values Bottom ([2]; WT-1 (F272A set)): 4.265
- Best-fit values Span ([2]; WT-1 (F272A set)): 83.04
- Best-fit values Top ([2]; WT-1 (F272A set)): 87.31
- Best-fit values Bottom ([2]; WT-1 (K291A set)): 12.18
- Best-fit values Bottom ([2]; WT-1 (N276A set)): 12.18
- Best-fit values Span ([2]; WT-1 (N276A set)): 93.68
- Best-fit values Top ([2]; WT-1 (N276A set)): 105.9
- Best-fit values Bottom ([2]; WT-1 (P220A set)): 1.374
- Best-fit values Span ([2]; WT-1 (P220A set)): 94.44
- Best-fit values Top ([2]; WT-1 (P220A set)): 95.82
- Best-fit values Bottom ([2]; WT-1 (W269A set)): -1.494
- Best-fit values Span ([2]; WT-1 (W269A set)): 99.94
- Best-fit values Top ([2]; WT-1 (W269A set)): 98.45
- Best-fit values Bottom ([2]; WT-2 (F265A set)): -0.2332
- Best-fit values Span ([2]; WT-2 (F265A set)): 101
- Best-fit values Top ([2]; WT-2 (F265A set)): 100.8
- Best-fit values Bottom ([2]; WT-2 (F272A set)): 12.18
- Best-fit values Span ([2]; WT-2 (F272A set)): 93.68
- Best-fit values Top ([2]; WT-2 (F272A set)): 105.9
- Best-fit values Bottom ([2]; WT-2 (K291A set)): 4.265
- Best-fit values Bottom ([2]; WT-2 (N276A set)): 4.265
- Best-fit values Span ([2]; WT-2 (N276A set)): 83.04
- Best-fit values Top ([2]; WT-2 (N276A set)): 87.31
- Best-fit values Bottom ([2]; WT-2 (P220A set)): -0.5804
- Best-fit values Span ([2]; WT-2 (P220A set)): 101.3
- Best-fit values Top ([2]; WT-2 (P220A set)): 100.7
- Best-fit values Bottom ([2]; WT-2 (W269A set)): 12.18
- Best-fit values Span ([2]; WT-2 (W269A set)): 93.68
- Best-fit values Top ([2]; WT-2 (W269A set)): 105.9
- Best-fit values Bottom ([2]; WT-3 (F265A set)): -0.5804
- Best-fit values Span ([2]; WT-3 (F265A set)): 101.3
- Best-fit values Top ([2]; WT-3 (F265A set)): 100.7
- Best-fit values Bottom ([2]; WT-3 (F272A set)): -0.5169
- Best-fit values Span ([2]; WT-3 (F272A set)): 99.09
- Best-fit values Top ([2]; WT-3 (F272A set)): 98.58
- Best-fit values Bottom ([2]; WT-3 (K291A set)): -0.5169
- Best-fit values Bottom ([2]; WT-3 (N276A set)): -0.5169
- Best-fit values Span ([2]; WT-3 (N276A set)): 99.09
- Best-fit values Top ([2]; WT-3 (N276A set)): 98.58
- Best-fit values Bottom ([2]; WT-3 (P220A set)): -0.2332
- Best-fit values Span ([2]; WT-3 (P220A set)): 101
- Best-fit values Top ([2]; WT-3 (P220A set)): 100.8
- Best-fit values Bottom ([2]; WT-3 (W269A set)): 6.264
- Best-fit values Span ([2]; WT-3 (W269A set)): 85.81
- Best-fit values Top ([2]; WT-3 (W269A set)): 92.07
- Bottom (best-fit) ([2]; Y205A set WT-1): -3.442
- Span (best-fit) ([2]; Y205A set WT-1): 101.1
- Top (best-fit) ([2]; Y205A set WT-1): 97.65
- Bottom (best-fit) ([2]; Y205A set WT-3): 2.142
- Span (best-fit) ([2]; Y205A set WT-3): 104.5
- Top (best-fit) ([2]; Y205A set WT-3): 106.6
- Span [2, 10]: 99.09 and 101 and 68.4
- Top [2, 10]: 98.58 and 100.8 and 104.3
- Span [2, 11]: 99.09 and 99.34 and 102.9 and 105
- Top [2, 11]: 98.58 and 98.6 and 97.73 and 102.7
- Span [2, 12]: 99.09 and 99.77 and 100.8 and 101.1
- Top [2, 12]: 98.58 and 98.71 and 100.9 and 97.65
- Bottom ([2]; best-fit, WT-1 (I284A batch)): 12.18
- Span ([2]; best-fit, WT-1 (I284A batch)): 93.68
- Top ([2]; best-fit, WT-1 (I284A batch)): 105.9
- Bottom ([2]; best-fit, WT-1 (P286A batch)): 5.515
- Span ([2]; best-fit, WT-1 (P286A batch)): 80.44
- Top ([2]; best-fit, WT-1 (P286A batch)): 85.95
- Bottom ([2]; best-fit, WT-1 (S285A batch)): 6.264
- Span ([2]; best-fit, WT-1 (S285A batch)): 85.81
- Top ([2]; best-fit, WT-1 (S285A batch)): 92.07
- Bottom ([2]; best-fit, WT-1 (T194A batch)): -0.5169
- Top ([2]; best-fit, WT-1 (T194A batch)): 98.58
- Bottom ([2]; best-fit, WT-1 (T287A batch)): 4.265
- Span ([2]; best-fit, WT-1 (T287A batch)): 83.04
- Top ([2]; best-fit, WT-1 (T287A batch)): 87.31
- Bottom ([2]; best-fit, WT-1 (W188A batch)): 6.264
- Span ([2]; best-fit, WT-1 (W188A batch)): 85.81
- Top ([2]; best-fit, WT-1 (W188A batch)): 92.07
- Bottom ([2]; best-fit, WT-2 (I284A batch)): -1.639
- Span ([2]; best-fit, WT-2 (I284A batch)): 102.1
- Top ([2]; best-fit, WT-2 (I284A batch)): 100.5
- Bottom ([2]; best-fit, WT-2 (P286A batch)): 4.265
- Span ([2]; best-fit, WT-2 (P286A batch)): 83.04
- Top ([2]; best-fit, WT-2 (P286A batch)): 87.31
- Bottom ([2]; best-fit, WT-2 (S285A batch)): 12.18
- Span ([2]; best-fit, WT-2 (S285A batch)): 93.68
- Top ([2]; best-fit, WT-2 (S285A batch)): 105.9
- Bottom ([2]; best-fit, WT-2 (T194A batch)): -0.7342
- Top ([2]; best-fit, WT-2 (T194A batch)): 98.6
- Bottom ([2]; best-fit, WT-2 (T287A batch)): 5.515
- Span ([2]; best-fit, WT-2 (T287A batch)): 80.44
- Top ([2]; best-fit, WT-2 (T287A batch)): 85.95
- Bottom ([2]; best-fit, WT-2 (W188A batch)): -0.5169
- Span ([2]; best-fit, WT-2 (W188A batch)): 99.09
- Top ([2]; best-fit, WT-2 (W188A batch)): 98.58
- Bottom ([2]; best-fit, WT-3 (I284A batch)): 6.264
- Span ([2]; best-fit, WT-3 (I284A batch)): 85.81
- Top ([2]; best-fit, WT-3 (I284A batch)): 92.07
- Bottom ([2]; best-fit, WT-3 (P286A batch)): 4.265
- Span ([2]; best-fit, WT-3 (P286A batch)): 83.04
- Top ([2]; best-fit, WT-3 (P286A batch)): 87.31
- Bottom ([2]; best-fit, WT-3 (S285A batch)): 4.265
- Span ([2]; best-fit, WT-3 (S285A batch)): 83.04
- Top ([2]; best-fit, WT-3 (S285A batch)): 87.31
- Bottom ([2]; best-fit, WT-3 (T194A batch)): -1.061
- Top ([2]; best-fit, WT-3 (T194A batch)): 98.71
- Bottom ([2]; best-fit, WT-3 (T287A batch)): -0.5169
- Span ([2]; best-fit, WT-3 (T287A batch)): 99.09
- Top ([2]; best-fit, WT-3 (T287A batch)): 98.58
- Bottom ([2]; best-fit, WT-3 (W188A batch)): 12.18
- Span ([2]; best-fit, WT-3 (W188A batch)): 93.68
- Top ([2]; best-fit, WT-3 (W188A batch)): 105.9
